In PMC6199744, “Development of Chemical Proteomics for the Folateome and Analysis of the Kinetoplastid Folateome” (ACS Infectious Diseases, 2018):
Where two headings read alike, the source gives them in different places.

Columns and labels:
Type in all cases: binding
[1] = target: T1, HeLa cell extract proteins (Homo sapiens, UniProt P53701)
T1 construct: endogenous in cells; host or cells: HeLa cell extract
T1 sequence (P53701 1-268): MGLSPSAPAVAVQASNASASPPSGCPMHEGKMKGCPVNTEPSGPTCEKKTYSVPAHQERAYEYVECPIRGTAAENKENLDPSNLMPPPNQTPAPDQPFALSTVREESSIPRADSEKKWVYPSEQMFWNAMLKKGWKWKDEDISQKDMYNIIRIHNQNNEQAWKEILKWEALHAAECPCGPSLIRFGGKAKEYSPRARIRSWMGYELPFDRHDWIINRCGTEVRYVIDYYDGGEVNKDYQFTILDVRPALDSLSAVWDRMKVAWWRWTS

[2] = target: T2, HeLa cell extract proteins (Homo sapiens, UniProt Q93074)
T2 construct: endogenous in cells; host or cells: HeLa cell extract
T2 sequence (Q93074 whole entry): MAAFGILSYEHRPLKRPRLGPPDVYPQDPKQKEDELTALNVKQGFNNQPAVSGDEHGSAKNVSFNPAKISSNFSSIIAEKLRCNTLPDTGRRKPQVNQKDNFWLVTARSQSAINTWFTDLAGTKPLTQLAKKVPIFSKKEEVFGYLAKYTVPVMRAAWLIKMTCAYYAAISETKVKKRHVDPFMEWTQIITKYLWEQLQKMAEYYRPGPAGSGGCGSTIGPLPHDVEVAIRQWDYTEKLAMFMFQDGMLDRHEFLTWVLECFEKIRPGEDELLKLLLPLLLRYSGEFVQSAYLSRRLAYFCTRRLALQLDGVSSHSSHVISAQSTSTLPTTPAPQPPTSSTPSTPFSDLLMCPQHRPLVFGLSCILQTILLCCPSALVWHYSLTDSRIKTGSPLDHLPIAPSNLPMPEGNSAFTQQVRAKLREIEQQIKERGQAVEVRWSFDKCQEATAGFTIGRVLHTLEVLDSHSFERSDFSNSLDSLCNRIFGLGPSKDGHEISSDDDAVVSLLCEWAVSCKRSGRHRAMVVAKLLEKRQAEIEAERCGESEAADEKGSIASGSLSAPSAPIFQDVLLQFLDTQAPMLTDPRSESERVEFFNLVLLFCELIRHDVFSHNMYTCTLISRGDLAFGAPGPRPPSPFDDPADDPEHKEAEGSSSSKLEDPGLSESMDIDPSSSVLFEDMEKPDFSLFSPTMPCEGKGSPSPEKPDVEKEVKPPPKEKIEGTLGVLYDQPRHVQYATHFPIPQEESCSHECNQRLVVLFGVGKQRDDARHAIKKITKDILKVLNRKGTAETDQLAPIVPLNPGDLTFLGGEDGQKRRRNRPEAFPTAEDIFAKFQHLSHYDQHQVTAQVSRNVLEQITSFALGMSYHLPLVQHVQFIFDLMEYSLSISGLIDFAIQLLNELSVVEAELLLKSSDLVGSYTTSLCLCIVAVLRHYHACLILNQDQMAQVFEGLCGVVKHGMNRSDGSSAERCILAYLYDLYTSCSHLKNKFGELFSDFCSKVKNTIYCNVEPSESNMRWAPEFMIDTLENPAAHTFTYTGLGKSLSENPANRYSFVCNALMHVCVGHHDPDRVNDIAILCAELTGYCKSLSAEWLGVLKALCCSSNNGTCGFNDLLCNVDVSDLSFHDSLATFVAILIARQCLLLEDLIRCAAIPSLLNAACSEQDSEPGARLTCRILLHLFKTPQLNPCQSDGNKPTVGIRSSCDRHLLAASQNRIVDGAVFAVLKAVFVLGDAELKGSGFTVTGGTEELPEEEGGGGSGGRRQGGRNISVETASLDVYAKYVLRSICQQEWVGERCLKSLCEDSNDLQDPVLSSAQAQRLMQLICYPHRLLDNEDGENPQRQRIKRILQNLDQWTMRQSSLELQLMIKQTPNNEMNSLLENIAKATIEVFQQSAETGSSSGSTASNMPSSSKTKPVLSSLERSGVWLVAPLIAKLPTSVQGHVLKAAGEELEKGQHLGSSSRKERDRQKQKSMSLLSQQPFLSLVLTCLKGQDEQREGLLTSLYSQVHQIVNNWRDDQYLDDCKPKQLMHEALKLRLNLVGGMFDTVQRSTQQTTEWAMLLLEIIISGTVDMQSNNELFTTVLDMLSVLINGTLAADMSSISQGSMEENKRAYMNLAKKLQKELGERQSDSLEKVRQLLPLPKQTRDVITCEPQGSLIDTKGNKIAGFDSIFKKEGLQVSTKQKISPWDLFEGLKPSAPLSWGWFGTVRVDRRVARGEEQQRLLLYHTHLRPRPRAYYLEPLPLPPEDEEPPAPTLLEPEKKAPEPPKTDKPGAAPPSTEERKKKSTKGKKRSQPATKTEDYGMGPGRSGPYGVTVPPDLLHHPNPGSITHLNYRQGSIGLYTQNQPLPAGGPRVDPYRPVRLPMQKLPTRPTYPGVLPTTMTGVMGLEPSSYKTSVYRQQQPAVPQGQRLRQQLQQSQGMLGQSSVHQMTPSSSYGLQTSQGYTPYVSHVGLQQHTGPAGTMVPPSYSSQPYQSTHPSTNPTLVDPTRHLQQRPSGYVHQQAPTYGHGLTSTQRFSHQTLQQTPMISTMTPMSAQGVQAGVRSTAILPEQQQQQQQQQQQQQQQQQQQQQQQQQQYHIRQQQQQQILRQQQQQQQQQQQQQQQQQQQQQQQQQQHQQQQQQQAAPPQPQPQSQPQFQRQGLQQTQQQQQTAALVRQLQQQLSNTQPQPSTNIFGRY

[3] = target: T3, HeLa cell extract proteins (Homo sapiens, UniProt O95456)
T3 construct: endogenous in cells; host or cells: HeLa cell extract
T3 sequence (O95456 1-288): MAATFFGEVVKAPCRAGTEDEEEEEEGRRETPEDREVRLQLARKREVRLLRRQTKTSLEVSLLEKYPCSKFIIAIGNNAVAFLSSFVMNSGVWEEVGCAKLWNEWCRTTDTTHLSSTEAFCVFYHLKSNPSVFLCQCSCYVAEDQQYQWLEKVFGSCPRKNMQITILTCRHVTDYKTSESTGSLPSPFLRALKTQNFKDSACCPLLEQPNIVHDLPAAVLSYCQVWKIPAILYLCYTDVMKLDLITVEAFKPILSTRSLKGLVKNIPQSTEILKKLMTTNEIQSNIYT

[4] = target: T4, HeLa cell extract proteins (Homo sapiens, UniProt P25205)
T4 construct: endogenous in cells; host or cells: HeLa cell extract
T4 sequence (P25205 1-808): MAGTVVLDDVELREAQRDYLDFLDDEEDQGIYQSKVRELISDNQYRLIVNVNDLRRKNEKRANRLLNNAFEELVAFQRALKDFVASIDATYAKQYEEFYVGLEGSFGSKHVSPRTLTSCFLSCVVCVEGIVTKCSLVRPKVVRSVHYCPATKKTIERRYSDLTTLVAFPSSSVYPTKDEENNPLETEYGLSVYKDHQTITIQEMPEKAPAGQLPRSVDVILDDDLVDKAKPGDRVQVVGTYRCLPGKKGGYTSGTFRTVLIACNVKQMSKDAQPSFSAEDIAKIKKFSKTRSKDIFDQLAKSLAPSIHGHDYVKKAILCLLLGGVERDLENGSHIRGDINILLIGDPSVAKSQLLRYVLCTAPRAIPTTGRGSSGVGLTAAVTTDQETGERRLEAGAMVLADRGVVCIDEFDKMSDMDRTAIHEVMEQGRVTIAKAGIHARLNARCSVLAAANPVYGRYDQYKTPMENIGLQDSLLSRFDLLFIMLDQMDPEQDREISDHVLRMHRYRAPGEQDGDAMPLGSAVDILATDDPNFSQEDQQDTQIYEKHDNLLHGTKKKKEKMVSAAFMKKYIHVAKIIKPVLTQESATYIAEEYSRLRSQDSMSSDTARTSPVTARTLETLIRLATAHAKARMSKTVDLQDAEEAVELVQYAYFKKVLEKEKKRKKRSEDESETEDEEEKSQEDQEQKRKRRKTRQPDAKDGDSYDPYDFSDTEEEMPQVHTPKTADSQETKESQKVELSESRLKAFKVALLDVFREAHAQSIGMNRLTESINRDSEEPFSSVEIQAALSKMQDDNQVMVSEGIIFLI

[5] = target: T5, HeLa cell extract proteins (Homo sapiens, UniProt O43324)
T5 construct: endogenous in cells; host or cells: HeLa cell extract
T5 sequence (O43324 1-174): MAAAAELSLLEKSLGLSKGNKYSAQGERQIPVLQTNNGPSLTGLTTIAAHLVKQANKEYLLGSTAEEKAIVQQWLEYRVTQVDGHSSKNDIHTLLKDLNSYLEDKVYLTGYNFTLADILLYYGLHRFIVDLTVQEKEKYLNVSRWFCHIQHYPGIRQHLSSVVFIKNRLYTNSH

[6] = target: T6, HeLa cell extract proteins (Homo sapiens, UniProt P40763)
T6 construct: endogenous in cells; host or cells: HeLa cell extract
T6 sequence (P40763 whole entry): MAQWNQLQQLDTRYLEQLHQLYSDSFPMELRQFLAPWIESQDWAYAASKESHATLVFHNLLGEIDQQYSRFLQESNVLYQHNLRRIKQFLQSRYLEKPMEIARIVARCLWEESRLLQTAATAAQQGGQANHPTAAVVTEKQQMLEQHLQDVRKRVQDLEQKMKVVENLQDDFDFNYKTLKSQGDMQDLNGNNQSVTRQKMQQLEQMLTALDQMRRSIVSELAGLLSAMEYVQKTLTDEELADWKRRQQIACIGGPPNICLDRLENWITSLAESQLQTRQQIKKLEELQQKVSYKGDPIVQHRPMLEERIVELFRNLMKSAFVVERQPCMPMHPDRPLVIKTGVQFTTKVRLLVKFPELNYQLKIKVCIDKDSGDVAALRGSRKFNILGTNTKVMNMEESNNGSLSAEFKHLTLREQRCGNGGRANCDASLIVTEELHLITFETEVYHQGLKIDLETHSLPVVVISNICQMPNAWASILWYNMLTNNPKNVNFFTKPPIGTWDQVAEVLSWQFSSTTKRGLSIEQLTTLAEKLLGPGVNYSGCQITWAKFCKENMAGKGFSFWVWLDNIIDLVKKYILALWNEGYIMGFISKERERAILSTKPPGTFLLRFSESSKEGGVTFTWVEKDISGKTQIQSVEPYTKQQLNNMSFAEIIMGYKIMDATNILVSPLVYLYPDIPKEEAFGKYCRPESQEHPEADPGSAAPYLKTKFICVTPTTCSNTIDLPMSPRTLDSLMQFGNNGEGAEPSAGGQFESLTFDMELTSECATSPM

[7] = target: T7, HeLa cell extract proteins (Homo sapiens, UniProt P50990)
T7 construct: endogenous in cells; host or cells: HeLa cell extract
T7 sequence (P50990 1-548): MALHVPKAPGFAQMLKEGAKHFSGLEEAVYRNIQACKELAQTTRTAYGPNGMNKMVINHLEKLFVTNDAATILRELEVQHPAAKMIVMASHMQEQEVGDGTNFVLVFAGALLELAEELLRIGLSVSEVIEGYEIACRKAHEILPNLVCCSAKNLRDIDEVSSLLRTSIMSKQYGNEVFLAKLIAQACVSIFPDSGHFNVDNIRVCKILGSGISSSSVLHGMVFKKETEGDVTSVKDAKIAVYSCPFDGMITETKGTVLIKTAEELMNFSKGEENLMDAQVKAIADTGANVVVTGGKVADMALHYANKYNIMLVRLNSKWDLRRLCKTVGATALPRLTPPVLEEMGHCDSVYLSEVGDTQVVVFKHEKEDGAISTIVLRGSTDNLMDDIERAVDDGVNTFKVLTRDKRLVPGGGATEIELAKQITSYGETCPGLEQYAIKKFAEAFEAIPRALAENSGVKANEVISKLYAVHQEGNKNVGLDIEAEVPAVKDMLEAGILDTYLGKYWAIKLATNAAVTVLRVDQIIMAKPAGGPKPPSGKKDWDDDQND

[8] = HeLa, protein EEF1E1 (EUKARYOTIC TRANSLATION ELONGATION FACTOR 1 EPSILON-1)

SMILES	fold changes relative to vehicle control ([1]; HeLa, protein HCCS)	fold changes relative to vehicle control ([2]; HeLa, protein MED12)	fold changes relative to vehicle control ([3]; HeLa, captured protein PSMG1)	fold changes relative to vehicle control ([4]; HeLa, protein MCM3)	fold changes relative to vehicle control [5, 8]	fold changes relative to vehicle control ([6]; protein STAT3, HeLa)	fold changes relative to vehicle control ([7]; HeLa, protein CCT8)	fold changes relative to vehicle control [1]	fold changes relative to vehicle control [2]	fold changes relative to vehicle control [3]	fold changes relative to vehicle control [4]	fold changes relative to vehicle control [5]	fold changes relative to vehicle control [6]	fold changes relative to vehicle control [7]	fold changes relative to vehicle control ([2]; captured protein MED12, HeLa)	fold changes relative to vehicle control ([3]; HeLa, protein PSMG1)	fold changes relative to vehicle control ([4]; protein MCM3, HeLa)	fold changes relative to vehicle control ([5]; protein EEF1E1, HeLa)	fold changes relative to vehicle control ([7]; protein CCT8, HeLa)
Nc1nc2c(c(=O)[nH]1)N(C=O)C(CNc1ccc(C(=O)N[C@@H](CCC(=O)O)C(=O)O)cc1)CN2 (stereo partly shown) [LEU, leucovorin]	0.88	1.14	0.9	0.91	0.84	0.81	0.99												
Nc1nc2[nH]cc(CCc3ccc(C(=O)N[C@@H](CCC(=O)O)C(=O)O)cc3)c2c(=O)[nH]1 [PTX, pemetrexed]								0.88	1	0.81	1.03	0.89	0.73	1.02					
CCCCCCOc1ccc(Cc2cnc(N)nc2N)cc1 [compound 1]	0.84					0.87									1.01	0.9	0.94	0.9	1.16
CCCCCCOc1cccc(Cc2cnc(N)nc2N)c1 [compound 2]	0.9					1.1									0.94	0.91	1.38	1.19	1.92
Nc1nc2cccc(-c3ccccc3)c2n1Cc1ccc(Cl)c(Cl)c1 [compound 3]	0.96					1.15									1.14	1.03	1.29	1.12	0.96
NCCOCCOCC(=O)Nc1nc2ncc(CNc3ccc(C(=O)NC(CCC(=O)O)C(=O)O)cc3)nc2c(=O)[nH]1 (stereo not shown) [compound 6]	0.75	1.21	0.76	1.01		0.91	1.15					1.02							
NCCCNc1ccc(C(=O)NC(CCC(=O)O)C(=O)O)cc1 (stereo not shown) [compound 7]	0.98	1.21	0.98	0.93	0.98	1	0.92												
